According to patent publication US8148531B2 (Chroma Therapeutics Ltd., priority 2005, dated 2012):
pIC50: −log10 of the molar value.

Key:
HCT 116 cell line = test: Cell inhibition assay (SRB cell viability), HCT 116; format: cell-based; details: Homo sapiens, IC50 range class, 72 h, read-out: Inhibitor Activity vs HCT 116 cell line
Outline: (§1)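 Log-phase cells seeded at 1000 cells/well, grown 24 h, then exposed to compounds (20 uM final) for 72 h. Viability read by sulphorhodamine B staining as % inhibition versus DMSO; IC50 from eight-point sigmoidal variable-slope fit.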

Aurora-A = target: T1, Aurora-A (Homo sapiens, UniProt O14965); test: Aurora-A enzyme assay (MBP-coated Flashplate, γ-33P-ATP); format: biochemical; details: IC50 range class; read-out: Inhibitor Activity vs Aurora-A
T1 sequence (O14965 1-403): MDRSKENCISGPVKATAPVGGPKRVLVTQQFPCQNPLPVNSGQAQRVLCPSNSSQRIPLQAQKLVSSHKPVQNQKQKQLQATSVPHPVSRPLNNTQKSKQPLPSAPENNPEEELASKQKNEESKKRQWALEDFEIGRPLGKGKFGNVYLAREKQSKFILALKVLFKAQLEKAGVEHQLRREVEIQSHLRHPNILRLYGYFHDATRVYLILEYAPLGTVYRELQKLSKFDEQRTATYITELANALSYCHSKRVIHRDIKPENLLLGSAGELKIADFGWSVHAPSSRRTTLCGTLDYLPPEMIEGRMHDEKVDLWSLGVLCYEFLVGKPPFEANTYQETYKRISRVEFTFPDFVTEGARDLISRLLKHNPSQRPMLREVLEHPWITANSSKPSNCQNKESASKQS
Description: (§2) The ability of compounds to inhibit Aurora-A activity was measured using a simple microplate assay for Aurora-A activity, also suitable for high-throughput screening. In brief, γ-^33P-ATP and Aurora-A were incubated in a myelin basic protein (MBP)-coated Flashplate® to generate a scintillation signal. The plates were formatted to contain the inhibitor, controls, positive control (staurosporin) and blanks. After incubation at 37° C. for 1 hour and a subsequent wash procedure, the plates were read on a TopCount-NXT™.
The 384-well basic Flashplate® and the γ-^33P-ATP were obtained from PerkinElmer Life Sciences, Boston, Mass.
(§3) IC50 values were determined by non-linear regression analysis, after fitting the data point results to the equation for sigmoidal dose response with variable slope (% activity against log concentration of compound), using Graphpad Prism software.
Full experimental procedure for this assay can be found within the following reference: Sun, C Journal of Biomolecular Screening 9(5), 2004, 391.

Aurora-B = Aurora-B (Homo sapiens, UniProt Q96GD4); test: Aurora-B enzyme assay (identical protocol as Aurora-A); format: biochemical; details: IC50 range class; read-out: Inhibitor Activity vs Aurora-B
Description: as §2, §3
The Aurora-B enzyme assay follows the identical protocol as Aurora-A.

U937 cell line = test: Cell inhibition assay (SRB cell viability), U937; format: cell-based; details: Homo sapiens, U-937, IC50 range class, 72 h, read-out: Inhibitor Activity vs U937 cell line
Outline: as §1

HUT cell line = test: Cell inhibition assay (SRB cell viability), HUT; format: cell-based; details: IC50 range class, 72 h, read-out: Inhibitor Activity vs HUT cell line
Outline: as §1

Sequence of Aurora-B (Q96GD4 whole entry): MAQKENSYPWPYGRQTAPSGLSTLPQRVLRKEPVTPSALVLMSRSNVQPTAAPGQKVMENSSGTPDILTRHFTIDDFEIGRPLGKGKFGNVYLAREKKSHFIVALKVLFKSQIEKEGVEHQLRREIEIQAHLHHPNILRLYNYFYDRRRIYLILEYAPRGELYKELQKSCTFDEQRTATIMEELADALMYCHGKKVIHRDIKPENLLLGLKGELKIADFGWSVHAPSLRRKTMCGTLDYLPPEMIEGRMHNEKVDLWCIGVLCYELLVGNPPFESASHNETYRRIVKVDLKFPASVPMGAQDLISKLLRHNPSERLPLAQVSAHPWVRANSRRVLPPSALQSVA

Row | Structure (SMILES) | pIC50 (HCT 116 cell line) | pIC50 (Aurora-A) | pIC50 (Aurora-B) | pIC50 (U937 cell line) | pIC50 (HUT cell line)
1 | COc1cc2c(Oc3ccc(NC(=O)c4ccccc4)cc3)ccnc2cc1OCCC[C@H](N)C(=O)OC1CCCC1 [Example 109, (S)-2-Amino-5-[4-(4-benzoylamino-phenoxy)-6-methoxy-quinolin-7-yloxy]-pentanoic acid cyclopentyl ester] | > 6.00 | 5.30 to 5.70 | 5.30 to 5.70 | > 6.00 | > 6.00
2 | COc1cc2c(Sc3ccc(NC(=O)C4CC4)cc3)ccnc2cc1OCC[C@H](N)C(=O)OC1CCCC1 [Example 20, (S)-2-Amino-4-{4-[4-(cyclopropanecarbonyl-amino)-phenylsulfanyl]-6-methoxy-quinolin-7-yloxy}-butyric acid cyclopentyl ester] | > 6.00 | < 5.30 | < 5.30 | > 6.00 | > 6.00
3 | COc1cc2c(Oc3ccc(NC(=O)c4cccc(F)c4)cc3)ccnc2cc1OCC[C@H](N)C(=O)OC1CCCC1 [Example 55, (S)-2-Amino-4-{4-[4-(3-fluoro-benzoylamino)-phenoxy]-6-methoxy-quinolin-7-yloxy}-butyric acid cyclopentyl ester] | > 6.00 | 5.30 to 5.70 | 5.30 to 5.70 | > 6.00 | > 6.00
4 | COc1cc2c(Oc3ccc(NC(=O)c4cc(C(F)(F)F)ccc4F)cc3)ccnc2cc1OCC[C@H](N)C(=O)O [Example 69, (S)-2-Amino-4-{4-[4-(2-fluoro-5-trifluoromethyl-benzoylamino)-phenoxy]-6-methoxy-quinolin-7-yloxy}-butyric acid] | – | 5.30 to 5.70 | > 5.70 | – | –
5 | COc1cc2c(Oc3ccc(NC(=O)c4ccccc4)cc3)ncnc2cc1OCC[C@H](N)C(=O)O [Example 30, (S)-2-Amino-4-[4-(4-benzoylamino-phenoxy)-6-methoxy-quinazolin-7-yloxy]-butyric acid] | – | 5.30 to 5.70 | 5.30 to 5.70 | – | –
6 | COc1cc2c(Oc3ccc(C(=O)Nc4ccccc4)cc3)ccnc2cc1OCC[C@H](N)C(=O)O [Example 78, (S)-2-Amino-4-[6-methoxy-4-(4-phenylcarbamoyl-phenoxy)-quinolin-7-yloxy]-butyric acid] | – | 5.30 to 5.70 | 5.30 to 5.70 | – | –
7 | COc1cc2c(Oc3ccc(CC(=O)Nc4cccc(F)c4)cc3)ccnc2cc1OCC[C@H](N)C(=O)O [Example 85, (S)-2-Amino-4-(4-{4-[(3-fluoro-phenylcarbamoyl)-methyl]-phenoxy}-6-methoxy-quinolin-7-yloxy)-butyric acid] | – | 5.30 to 5.70 | > 5.70 | – | –
8 | COc1cc2c(Oc3ccc(CC(=O)Nc4ccc(F)cc4F)cc3)ccnc2cc1OCC[C@H](N)C(=O)O [Example 89, (S)-2-Amino-4-(4-{4-[(2,4-difluoro-phenylcarbamoyl)-methyl]-phenoxy}-6-methoxy-quinolin-7-yloxy)-butyric acid] | – | < 5.30 | > 5.70 | – | –
9 | COc1cc2c(Oc3ccc(NC(=O)C4CC4)cc3)ccnc2cc1OCC[C@H](N)C(=O)O [Example 60, (S)-2-Amino-4-{4-[4-(cyclopropanecarbonyl-amino)-phenoxy]-6-methoxy-quinolin-7-yloxy}-butyric acid] | – | < 5.30 | < 5.30 | – | –
10 | COc1cc2c(Oc3ccc(NC(=O)Nc4ccc(C(F)(F)F)cc4)cc3F)ccnc2cc1OCC[C@H](N)C(=O)O [Example 126, (S)-2-Amino-4-(4-{2-fluoro-4-[3-(4-trifluoromethyl-phenyl)-ureido]-phenoxy}-6-methoxy-quinolin-7-yloxy)-butyric acid] | – | > 5.70 | > 5.70 | – | –
11 | COc1cc2c(Nc3ccc(NC(=O)c4ccccc4)cc3)ccnc2cc1OCC[C@H](N)C(=O)O [Example 16, (S)-2-Amino-4-[4-(4-benzoylamino-phenylamino)-6-methoxy-quinolin-7-yloxy]-butyric acid] | – | < 5.30 | 5.30 to 5.70 | – | –
12 | COc1cc2c(Oc3ccc(CC(=O)Nc4ccc(F)cc4)cc3)ccnc2cc1OCC[C@H](N)C(=O)O [Example 87, (S)-2-Amino-4-(4-{4-[(4-fluoro-phenylcarbamoyl)-methyl]-phenoxy}-6-methoxy-quinolin-7-yloxy)-butyric acid] | – | < 5.30 | > 5.70 | – | –
13 | COc1cc2c(Oc3ccc(NC(=O)c4ccccc4)c(F)c3)ccnc2cc1OCC[C@H](N)C(=O)O [Example 131, (S)-2-Amino-4-[4-(4-benzoylamino-3-fluoro-phenoxy)-6-methoxy-quinolin-7-yloxy]-butyric acid] | – | < 5.30 | 5.30 to 5.70 | – | –
14 | COc1cc2c(Oc3ccc(NC(=O)c4ccccc4)cc3)ccnc2cc1OCC[C@H](NC(=O)OC(C)(C)C)C(=O)O [Example 3] | – | > 5.70 | > 5.70 | – | –
15 | COc1cc2c(Oc3ccc(CC(=O)Nc4ccccc4)cc3)ccnc2cc1OCC[C@H](N)C(=O)O [Example 81, (S)-2-Amino-4-[6-methoxy-4-(4-phenylcarbamoylmethyl-phenoxy)-quinolin-7-yloxy]-butyric acid] | – | 5.30 to 5.70 | 5.30 to 5.70 | – | –

More lines, main results first:

Row | pIC50 (HCT 116 cell line) | pIC50 (Aurora-A) | pIC50 (Aurora-B) | pIC50 (U937 cell line) | Structure (SMILES) | pIC50 (HUT cell line)
16 | – | > 5.70 | > 5.70 | – | COc1cc2c(Sc3ccc(NC(=O)Nc4ccc(C(F)(F)F)cc4)cc3)ccnc2cc1OCCC[C@@H](N)C(=O)O [Example 122, (R)-2-Amino-5-(6-methoxy-4-{4-[3-(4-trifluoromethyl-phenyl)-ureido]-phenylsulfanyl}-quinolin-7-yloxy)-pentanoic acid] | –
17 | – | > 5.70 | > 5.70 | – | COc1cc2c(Sc3ccc(NC(=O)c4ccccc4)cc3)ccnc2cc1OCC[C@H](N)C(=O)O [Example 19, (S)-2-Amino-4-[4-(4-benzoylamino-phenylsulfanyl)-6-methoxy-quinolin-7-yloxy]-butyric acid] | –
18 | – | > 5.70 | > 5.70 | – | COc1cc2c(Oc3ccc(NC(=O)c4ccccc4)cc3)ccnc2cc1OCC[C@H](NC(C)=O)C(=O)O [Example 43, (S)-2-Acetylamino-4-[4-(4-benzoylamino-phenoxy)-6-methoxy-quinolin-7-yloxy]-butyric acid] | –
19 | – | > 5.70 | > 5.70 | – | COc1cc2c(Oc3ccc(NC(=O)c4ccccc4)cc3)ccnc2cc1OCCC[C@@H](N)C(=O)O [Example 116, (R)-2-Amino-5-[4-(4-benzoylamino-phenoxy)-6-methoxy-quinolin-7-yloxy]-pentanoic acid] | –
20 | – | > 5.70 | > 5.70 | – | COc1cc2c(Oc3ccc(NC(=O)c4cccs4)cc3)ccnc2cc1OCC[C@H](N)C(=O)O [Example 76, (S)-2-Amino-4-(6-methoxy-4-{4-[(thiophene-2-carbonyl)-amino]-phenoxy}-quinolin-7-yloxy)-butyric acid] | –
21 | – | > 5.70 | > 5.70 | – | COc1cc2c(Oc3ccc(NC(=O)Nc4ccccc4)cc3)ccnc2cc1OCCC[C@@H](N)C(=O)O [Example 118, (R)-2-Amino-5-{6-methoxy-4-[4-(3-phenyl-ureido)-phenoxy]-quinolin-7-yloxy}-pentanoic acid] | –
22 | – | > 5.70 | > 5.70 | – | COc1cc2c(Oc3ccc(NC(=O)Nc4ccc(C(F)(F)F)cc4)cc3F)ccnc2cc1OCCC[C@@H](N)C(=O)O [Example 124, (R)-2-Amino-5-(4-{2-fluoro-4-[3-(4-trifluoromethyl-phenyl)-ureido]-phenoxy}-6-methoxy-quinolin-7-yloxy)-pentanoic acid] | –
23 | – | > 5.70 | 5.30 to 5.70 | – | COc1cc2nccc(Oc3ccc(NC(=O)c4ccccc4)cc3)c2cc1OCC[C@H](N)C(=O)O [Example 36, (S)-2-Amino-4-[4-(4-benzoylamino-phenoxy)-7-methoxy-quinolin-6-yloxy]-butyric acid] | –
24 | – | > 5.70 | 5.30 to 5.70 | – | COc1cc2c(Nc3cnc(NC(=O)c4ccccc4)nc3)ccnc2cc1OCC[C@H](N)C(=O)O [Example 26, (S)-2-Amino-4-[4-(2-benzoylamino-pyrimidin-5-ylamino)-6-methoxy-quinolin-7-yloxy]-butyric acid] | –
25 | – | > 5.70 | > 5.70 | – | COc1cc2c(Oc3ccc(NC(=O)c4ccc(Cl)cc4)cc3)ccnc2cc1OCC[C@H](N)C(=O)O [Example 67, (S)-2-Amino-4-{4-[4-(4-chloro-benzoylamino)-phenoxy]-6-methoxy-quinolin-7-yloxy}-butyric acid] | –
26 | – | > 5.70 | > 5.70 | – | COc1cc2c(Oc3ccc(NC(=O)Nc4ccc(C(F)(F)F)cc4)cc3)ccnc2cc1OCC[C@@H](N)C(=O)O [Example 105, (R)-2-Amino-4-(6-methoxy-4-{4-[3-(4-trifluoromethyl-phenyl)-ureido]-phenoxy}-quinolin-7-yloxy)-butyric acid] | –
